Test results taken from patent US20070134261A1, “Effectors of innate immunity” (priority 2001, published 2007).
Like-named read-outs stand apart in the source and are kept apart here. Residues, ends and D or L forms follow the SMILES beside them.

How the values were obtained:
[1] = system: whole human blood; assay type: cell-based; conditions: 4 hr (0 μg/ml: 3205)
[2] = system: human bronchial epithelial cells (16HBEo14); assay: Induction of IL-8 in HBE cells; assay type: cell-based; conditions: for IL-8: 8 h
Experimental: The murine macrophage cell line RAW 264.7, THP-1 cells (human monocytes), a human epithelial cell line (A549), human bronchial epithelial cells (16HBEo14), and whole human blood were used. HBE cells were grown in MEM with Earle's. THP-1 cells were grown and maintained in RPMI 1640 medium. The RAW and A549 cell lines were maintained in DMEM supplemented with 10% fetal calf serum. […] DMEM was aspirated from cells grown overnight and replaced with fresh medium. After incubation of the cells with peptide, the release of chemokines into the culture supernatant was determined by ELISA (R&D Systems, Minneapolis, Minn.).

[3] = system: HBE cells; assay: Phosphorylation of MAP kinases (Western blot) in HBE cells; assay type: cell-based, human
Experimental: The cells were seeded at 2.5×10^5−5×10^5 cells/ml and left overnight. They were washed once in media, serum starved in the morning (serum free media—4 hrs). The media was removed and replaced with PBS, then sat at 37° C. for 15 minutes and then brought to room temp for 15 minutes. Peptide was added (concentrations 0.1 μg/ml−50 μg/ml) or H2O and incubated 10 min. The PBS was very quickly removed and replaced with ice-cold radioimmunoprecipitation (RIPA) buffer with inhibitors (NaF, B-glycerophosphate, MOL, Vanadate, PMSF, Leupeptin Aprotinin). The plates were shaken on ice for 10-15 min or until the cells were lysed and the lysates collected. The procedure for THP-1 cells was slightly different; more cells (2×10^6) were used. They were serum starved overnight, and to stop the reaction 1 ml of ice-cold PBS was added then they sat on ice 5-10 min, were spun down then resuspended in RIPA. Protein concentrations were determined using a protein assay (Pierce, Rockford, Ill.). Cell lysates (20 μg of protein) were separated by SDS-PAGE and transferred to nitrocellulose filters. […] The freshly harvested cells were consistently >99% viable as assessed by their ability to exclude trypan blue. […] Protein content was analyzed and approximately 30 μg of each sample was loaded in a 12% SDS-PAGE gel. […] Phosphorylation was detected with phosphorylation-specific antibodies.

[4] = system: A549 epithelial cells; assay: Human Operon arrays (PRHU04-S1) of A549 cells treated with peptide alone (Tables 31-37, 53); conditions: peptide 50 μg/ml, 4 h, A549 cells

## CC[C@H](C)[C@H](N)C(=O)N[C@@H](CC(C)C)C(=O)N1CCC[C@H]1C(=O)N[C@@H](Cc1c[nH]c2ccccc12)C(=O)N[C@@H](CCCCN)C(=O)N[C@@H](Cc1c[nH]c2ccccc12)C(=O)N1CCC[C@H]1C(=O)N[C@@H](Cc1c[nH]c2ccccc12)C(=O)N[C@@H](Cc1c[nH]c2ccccc12)C(=O)N1CCC[C@H]1C(=O)N[C@@H](Cc1c[nH]c2ccccc12)C(=O)N[C@@H](CCCNC(=N)N)C(=O)N[C@@H](CCCNC(=N)N)C(N)=O [SEQ ID NO: 2]
[1]; 10 μg/ml peptide + E. coli O111:B4 LPS
  IL-8: 1912 pg/mL
[1]; 50 μg/ml peptide + E. coli O111:B4 LPS
  IL-8: 1458 pg/mL
[2]
  induction of IL-8: significantly induced IL-8
[2]; peptide 0.1 μg/ml
  IL-8: 670 ± 155 pg/mL
[2]; peptide 1 μg/ml
  IL-8: 712 ± 205 pg/mL
[2]; peptide 10 μg/ml
  IL-8: 941 ± 15 pg/mL
[2]; peptide 50 μg/ml
  IL-8: 1490 ± 715 pg/mL
[3]
  phosphorylation of p38 and ERK1/2: dose dependent phosphorylation

## CSCC[C@H](NC(=O)[C@H](CO)NC(=O)[C@@H](NC(=O)[C@H](CCCCN)NC(=O)[C@H](Cc1ccccc1)NC(=O)[C@H](CS)NC(=O)[C@H](CO)NC(=O)[C@H](CCCNC(=N)N)NC(=O)[C@@H](N)CCCCN)C(C)C)C(=O)N[C@@H](CCCNC(=N)N)C(=O)NCC(=O)N[C@H](C(=O)N[C@@H](CO)C(=O)N[C@@H](CCCNC(=N)N)C(=O)N[C@@H](CCCNC(=N)N)C(=O)N[C@@H](CCCNC(=N)N)C(=O)N[C@@H](CS)C(=O)N[C@@H](CCCCN)C(=O)O)C(C)C [SEQ ID NO: 27] (H-KRSCFKVSMRGVSRRRCK-OH; N-terminus and C-terminus assumed)
[4]
  ID#:ctrl expression ratio, AB002359 phosphoribosyl formylglycina midine synthase: 2.7
  ID#:ctrl expression ratio, AB006537 IL-1R accessory protein: 7.0
  ID#:ctrl expression ratio, AB011124 KIAA0552 gene product: 72.0
  ID#:ctrl expression ratio, AB014536 copine III: 9.5
  ID#:ctrl expression ratio, AB018285 KIAA0742 protein: 13.9
  ID#:ctrl expression ratio, AB020659 KIAA0852 protein: 7.6
  ID#:ctrl expression ratio, AC004774 distal-less homeo box 5: 6.3
  ID#:ctrl expression ratio, AC005154 unkown: 7.2
  ID#:ctrl expression ratio, AF000237 1-acylglycerol-3-phosphate O-acyltransferase 2: 2.5
  ID#:ctrl expression ratio, AF012086 RAN binding protein 2-like 1: 4.0
  ID#:ctrl expression ratio, AF030555 fatty-acid-Coenzyme A ligase_long-chain 4: 2.2
  ID#:ctrl expression ratio, AF035309 proteasome 26S subunit ATPase 5: 6.6
  ID#:ctrl expression ratio, AF038664 UDP-Gal:beta GlcNAc beta 1_4-galactosyltransferase: 22.2
  ID#:ctrl expression ratio, AF042378 spindle pole body protein: 3.0
  ID#:ctrl expression ratio, AF052138 unknown: 2.8
  ID#:ctrl expression ratio, AF052183 unknown: 3.7
  ID#:ctrl expression ratio, AF071510 lecithin retinol acyltransferase: 10.3
  ID#:ctrl expression ratio, AF074723 RNA polymerase II transcriptional regulation mediator: 3.2
  ID#:ctrl expression ratio, AF080579 Homo sapiens integral membrane protein: 3.0
  ID#:ctrl expression ratio, AF088868 fibrousheathin II: 10.0
  ID#:ctrl expression ratio, AF093265 Homer neuronal immediate early gene_3: 13.3
  ID#:ctrl expression ratio, AF124735 LIM HOX gene 2: 4.4
  ID#:ctrl expression ratio, AF131831 unknown: 7.0
  ID#:ctrl expression ratio, AF151043 hypothetical protein: 2.2
  ID#:ctrl expression ratio, AF251040 putative nuclear protein: 3.4
  ID#:ctrl expression ratio, AJ005273 antigenic determinant of recA protein: 11.1
  ID#:ctrl expression ratio, AK000161 hypothetical protein: 8.7
  ID#:ctrl expression ratio, AK000227 hypothetical protein: 7.1
  ID#:ctrl expression ratio, AK000541 hypothetical protein: 13.9
  ID#:ctrl expression ratio, AK000576 hypothetical protein: 9.3
  ID#:ctrl expression ratio, AK001075 hypothetical protein: 2.6
  ID#:ctrl expression ratio, AK001135 Sec23-interacting protein p125: 4.5
  ID#:ctrl expression ratio, AK001154 hypothetical protein: 4.4
  ID#:ctrl expression ratio, AK001890 unknown: 3.5
  ID#:ctrl expression ratio, AL024493 unknown: 13.5
  ID#:ctrl expression ratio, AL031121 unknown: 3.7
  ID#:ctrl expression ratio, AL031588 hypothetical protein: 20.2
  ID#:ctrl expression ratio, AL035562 paired box gene 1: 81.9
  ID#:ctrl expression ratio, AL080077 unknown: 2.0
  ID#:ctrl expression ratio, AL096803 unknown: 18.3
  ID#:ctrl expression ratio, AL110125 unknown: 2.7
  ID#:ctrl expression ratio, AL133051 unknown: 6.3
  ID#:ctrl expression ratio, AL133605 unknown: 4.2
  ID#:ctrl expression ratio, AL137268 KIAA0759 protein: 2.3
  ID#:ctrl expression ratio, AL137461 unknown: 9.0
  ID#:ctrl expression ratio, AL137540 unknown: 2.6
  ID#:ctrl expression ratio, AL137577 unknown: 6.2
  ID#:ctrl expression ratio, AL137718 unknown: 8.0
  ID#:ctrl expression ratio, D00760 proteasome subunit_alpha type_2: 2.6
  ID#:ctrl expression ratio, D12676 CD36 antigen: 3.4
  ID#:ctrl expression ratio, D31891 SET domain_bifurcated_1: 6.0
  ID#:ctrl expression ratio, D42053 site-1 protease: 7.1
  ID#:ctrl expression ratio, D50405 histone deacetylase 1: 7.2
  ID#:ctrl expression ratio, D80000 Segregation of mitotic chromosomes 1: 2.5
  ID#:ctrl expression ratio, D87120 osteoblast protein: 2.0
  ID#:ctrl expression ratio, J03068 N-acylaminoacyl-peptide hydrolase: 5.0
  ID#:ctrl expression ratio, L34587 transcription elongation factor B: 16.3
  ID#:ctrl expression ratio, M34175 adaptor-related protein complex 2 beta 1 subunit: 3.1
  ID#:ctrl expression ratio, M81933 cell division cycle 25A: 3.1
  ID#:ctrl expression ratio, M97925 defensin alpha 5_Paneth cell-specific: 35.9
  ID#:ctrl expression ratio, NM_004732 potassium voltage-gated channel: 4.0
  ID#:ctrl expression ratio, NM_004862 LPS-induced TNF-alpha factor: 4.8
  ID#:ctrl expression ratio, NM_006963 zinc finger protein 22: 7.6
  ID#:ctrl expression ratio, NM_013329 GC-rich sequence DNA-binding factor candidate: 14.3
  ID#:ctrl expression ratio, NM_013393 cell division protein FtsJ: 5.8
  ID#:ctrl expression ratio, NM_014366 putative nucleotide binding protein_estradiol-induced: 4.3
  ID#:ctrl expression ratio, NM_016015 CGI-68 protein: 2.3
  ID#:ctrl expression ratio, S49953 DNA-binding transcriptional activator: 4.0
  ID#:ctrl expression ratio, S57296 HER2/neu receptor: 12.1
  ID#:ctrl expression ratio, U00115 zinc finger protein 51: 2.2
  ID#:ctrl expression ratio, U13666 G protein-coupled receptor 1: 5.4
  ID#:ctrl expression ratio, U33547 MHC class II antigen HLA-DRB6 mRNA: 5.3
  ID#:ctrl expression ratio, U67156 mitogen-activated protein kinase kinase kinase 5: 3.0
  ID#:ctrl expression ratio, U68018 MAD homolog 2: 2.2
  ID#:ctrl expression ratio, U71092 G protein-coupled receptor 24: 9.1
  ID#:ctrl expression ratio, U78305 protein phosphatase 1D: 13.0
  ID#:ctrl expression ratio, U88528 cAMP responsive element binding protein: 5.4
  ID#:ctrl expression ratio, U88666 SFRS protein kinase 2: 5.9
  ID#:ctrl expression ratio, X59770 IL-1R type II: 4.7
  ID#:ctrl expression ratio, X62744 MHC class II DM alpha: 4.7
  ID#:ctrl expression ratio, X63563 polymerase II polypeptide B: 8.1
  ID#:ctrl expression ratio, X89399 RAS p21 protein activator: 14.9
